Target: 5HT2A (Homo sapiens, UniProt P28223)
Experiment: Human 5HT2A inhibition assay (FLIPR calcium 6, 5HT stimulus, stably transfected HEK293 cells)
Type: cell-based
Design: expressed in transfected cells; host or cells: HEK293
Settings: for inhibition at 1 µM: HEK293, 1 μM, read-out: % Inhibition at 1 μM (SD)
Procedure: The derivatives were evaluated at a concentration of 1 μM for their antagonist activity on the 5HT2A receptor (Tables 1–3)[33],[34]. […] The cells were stained with 100 μL of cytosolic calcium dye using the FLIPR calcium 6 assay solution (Molecular devices, #R8190) supplemented with 2.5 mM probenecid (Sigma; P8761) and incubated for 1 h at 37 °C. After 1 h, the designated amount of the compound was treated in each well and incubated for another 1 h at 37 °C. […] Experimental conditions for the 5HT subtypes can be found in the Supporting Information (Supplementary Table 1).

Sequence of 5HT2A (P28223 whole entry): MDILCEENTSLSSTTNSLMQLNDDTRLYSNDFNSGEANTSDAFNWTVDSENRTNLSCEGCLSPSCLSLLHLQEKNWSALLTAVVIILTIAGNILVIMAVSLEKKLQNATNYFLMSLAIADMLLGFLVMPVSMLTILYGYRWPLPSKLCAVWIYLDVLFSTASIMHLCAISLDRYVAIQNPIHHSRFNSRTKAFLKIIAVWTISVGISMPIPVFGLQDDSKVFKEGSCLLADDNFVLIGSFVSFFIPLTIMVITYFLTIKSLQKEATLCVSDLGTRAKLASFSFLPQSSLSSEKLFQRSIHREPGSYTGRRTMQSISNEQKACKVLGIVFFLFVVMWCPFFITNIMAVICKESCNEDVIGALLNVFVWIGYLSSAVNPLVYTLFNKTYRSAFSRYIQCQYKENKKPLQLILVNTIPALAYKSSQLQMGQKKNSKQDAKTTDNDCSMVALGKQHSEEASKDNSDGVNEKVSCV

Row | Compound | IC50 | inhibition at 1 µM | % Inhibition at 1 μM (SD)
1 | Cc1nc2n(c(=O)c1CCN1CCC(=C3c4ccc(Cl)cc4CCc4cccnc43)CC1)CCC[C@H]2O (single isomer, unassigned) [Compound 22 g] | 11.1 nM |  | 
2 | OC(CN1CCC(=C2c3ccc(Cl)cc3CCc3cccnc32)CC1)c1ccc(Br)cc1 (centres unmarked) [Compound 9a] | 31.9 nM | 92 ± 1.07% | 
3 | O=C1Cc2cc(C(=O)CN3CCC(=C4c5ccc(Cl)cc5CCc5cccnc54)CC3)c(Cl)cc2N1 [Compound 8c] |  | 73% | 73.02 ± 0.51%
4 | Cc1nc2n(c(=O)c1CCN1CCC(=C3c4ccc(Cl)cc4CCc4cccnc43)CC1)CCC[C@H]2O (single isomer, unassigned) [22 g] |  |  | 97.17 ± 7.11%
5 | O=C1Cc2cc(C(O)CN3CCC(=C4c5ccc(Cl)cc5CCc5cccnc54)CC3)c(Cl)cc2N1 (centres unmarked) [Compound 9c] | 22.2 nM | 93.8 ± 3.13% | 
6 | Cc1nc2n(c(=O)c1CCN1CCC(=C3c4ccc(Cl)cc4CCc4cccnc43)CC1)CCC[C@@H]2O (single isomer, unassigned) [Compound 22 f] | 10.6 nM |  | 
7 | O=C1Cc2cc(C(O)CN3CCC(=C4c5ccc(Cl)cc5CCc5cccnc54)CC3)ccc2N1 (centres unmarked) [Compound 9b] | 21.4 nM | 92.2 ± 1.59% | 

Source: publication PMC10799935, “Discovery of a peripheral 5HT2A antagonist as a clinical candidate for metabolic dysfunction-associated steatohepatitis” (Nature Communications, 2024)
